These results are taken from patent US8592486B2, “Compounds for inflammation and immune-related uses” (Synta Pharmaceuticals Corp., priority 2005, dated 2013).

Where a name gives a salt, the structure may show the parent alone. Read-outs that look alike come from different tables or passages of the source.

Assay [1] has as its system chemotactic response of human T cells to MIP-1α. Briefly: T cell chemotaxis (cell migration) assay, human T cells. In kind it is cell-based. Particulars: 100 ng/ml MIP-1α, FIG. 1. The protocol:
(§1) Twenty ml aliquots of heparinized whole blood (2 pig, 1 human) were subjected to density gradient centrifugation on Ficoll Hypaque. The buffy coat layers representing peripheral blood mononuclear cells (PBMCs) containing lymphocytes and monocytes were washed once, resuspended in 12 ml of incomplete RPMI 1640 and then placed in gelatin-coated T75 culture flasks for 1 hr at 37° C. The non-adherent cells, representing peripheral blood lymphocytes (PBLs) depleted of monocytes, were resuspended in complete RPMI media and placed in loosely packed activated nylon wool columns that had been equilibrated with warm media. After 1 hr at 37° C., the non-adherent T cell populations were eluted by washing of the columns with additional media. The T cell preparations were centrifuged, resuspended in 5 ml of incomplete RPMI, and counted using a hemocytometer.
(§2) Aliquots of each T cell preparation were labeled with Calcien AM (TefLabs) and suspended at a concentration of 2.4×10^6/ml in HEPES-buffered Hank's Balanced Salt Solution containing 1.83 mM CaCl2 and 0.8 mM MgCl2, pH 7.4 (HHBSS). […] The chemotaxis units were then placed in a CytoFlour 4000 (PerSeptive BioSystems) and the fluorescence of each well measured (excitation and emission wavelengths of 450 and 530 nm, respectively). […]

For assay [2], the system named is degranulation in RBL cells. Briefly: Inhibition of degranulation in RBL cells. It counts as cell-based. The following applies: Rattus norvegicus, anti-DNP IgE, read-out: IC50 (concentration which inhibits 50% of degranulation in RBL cells). The protocol:
The day before the assay was performed, RBL cells, that had been grown to confluence in a 96 well plate, were incubated at 37° C. for at least 2 hours. The medium was replaced in each well with 100 μL of fresh medium containing […] of anti-DNP IgE.
On the following day, the cells were washed once with PRS (2.6 mM glucose and 0.1% BSA) and 160 μL of PRS was added to each well. A test compound was added to a well in a 20 μL solution at 10× of the desired concentration and incubated for 20 to 40 minutes at 37° C. 20 μL of 10× mouse anti-IgE ([…]) was added. Maximum degranulation occurred between 15 to 40 minutes after addition of anti-IgE.

The test system of assay [3] is chemotactic response of porcine T cells to MIP-1α. Briefly: T cell chemotaxis (cell migration) assay, porcine T cells. In kind it is cell-based, pig. Particulars: Sus scrofa, 10 ng/ml MIP-1α, 2 hr migration, averages of triplicates, read-out: IC50, inhibition of chemotactic response of porcine T cells. On the procedure: as §1, §2
The next assay concerns IL-2 production. In words: Inhibition of IL-2 production in PHA-activated Jurkat cells (ELISA). In kind it is cell-based, human. Particulars: Homo sapiens, Jurkat cells, PHA 2.5 μg/mL, 20 hours, IL-2 ELISA, read-out: IC50 (inhibition of IL-2 production). The protocol: Jurkat cells were placed in a 96 well plate (0.5 million cells per well in 1% FBS medium) then a test compound of this invention was added at different concentrations. After 10 minutes, the cells were activated with PHA (final concentration 2.5 μg/mL) and incubated for 20 hours at 37° C. under CO2. The final volume was 200 μL. Following incubation, the cells were centrifuged and the supernatants collected and stored at −70° C. prior to assaying for IL-2 production. A commercial ELISA kit (IL-2 Eli-pair, Diaclone Research, Besancon, France) was used to detect production of IL-2, from which dose response curves were obtained. The IC50 value was calculated as the concentration at which 50% of maximum IL-2 production after stimulation was inhibited versus a non-stimulation control.

Assay [4] has as its system ICRAC in human Jurkat T cells. Briefly: Whole-cell patch clamp, inhibition of ICRAC current in Jurkat T cells. It counts as cell-based. On the procedure:
Patch clamp experiments were performed in the tight-seal whole-cell configuration at 21-25° C. High resolution current recordings were acquired by a computer-based patch clamp amplifier system (EPC-9, HEKA, Lambrecht, Germany). Patch pipettes had resistances between 2-4 MΩ after filling with the standard intracellular solution. Immediately following establishment of the whole-cell configuration, voltage ramps of 50-200 ms duration spanning the voltage range of −100 to +100 mV were delivered at a rate of 0.5 Hz over a period of 300-400 seconds. […] Capacitive currents and series resistance were determined and corrected before each voltage ramp using the automatic capacitance compensation of the EPC-9. The low resolution temporal development of membrane currents was assessed by extracting the current amplitude at −80 mV or +80 mV from individual ramp current records.
In general, a whole cell patch clamp method was used to examine the effects of a compound of the invention on a channel that mediates Icrac. […] Then a compound to be tested was perfused (or puffed) to cells in the external solution and the effect of the compound on Icrac was measured. […]
Patch-clamp experiments were performed in the tight-seal whole-cell configuration at 21-25° C. […] Capacitive currents and series resistance were determined and corrected before each voltage ramp using the automatic capacitance compensation of the EPC-9. […]
In general terms: The patch-clamp technique gives a direct electrical read-out from membranes.

As to `COC(=O)c1ccc(C)c(-c2ccc(NC(=O)c3c(F)cccc3F)cc2)c1` [Compound 1, 4′-(2,6-Difluoro-benzoylamino)-6-methyl-biphenyl-3-carboxylic acid methyl ester], the “Inhibition of chemotactic response of human T cells” value in assay [1] is recorded as “inhibitory”. Moreover, the IC50 in assay [2] is 2520 nM; in assay [3], roughly 5 nM; in the assay with IL-2 production (Jurkat, 20 h) it was 2 to 4 nM. Further, the “Inhibition of ICRAC in human Jurkat T cells” value in assay [4] is “strong inhibitor”.
With `Cc1ccc(-c2nnn[nH]2)cc1-c1ccc(NC(=O)c2c(F)cccc2F)cc1` [Compound 6, 2,6-Difluoro-N-[2′-methyl-5′-(1H-tetrazol-5-yl)-biphenyl-4-yl]-benzamide], the IC50 in assay [2] turned out to be 5010 nM; with IL-2 production (Jurkat, 20 h), 9 nM.
`COc1ncc(Cl)cc1-c1ccc(NC(=O)c2c(F)cccc2F)cc1` [Compound 8, N-[4-(5-Chloro-2-methoxy-pyridin-3-yl)-phenyl]-2,6-difluoro-benzamide, hydrochloride]: the figures for the IC50 (in assay [2] (RBL); in the assay on IL-2 production) were 520 nM and 13 nM, respectively.
On to `COc1ncc(Cl)cc1-c1ccc(NC(=O)c2c(F)cccc2F)cc1` [Compound 5, N-[4-(5-Chloro-2-methoxy-pyridin-3-yl)-phenyl]-2,6-difluoro-benzamide], for which the IC50 in assay [2] came to 1100 nM; with IL-2 production (Jurkat, 20 h), 1 nM.
Taken in the same sequence, the figures for `Cc1ccc(-c2ncco2)cc1-c1ccc(NC(=O)c2c(F)cccc2F)cc1` [Compound 3, 2,6-Difluoro-N-(2′-methyl-5′-oxazol-2-yl-biphenyl-4-yl)-bezamide] were 4500 nM and 1.6 nM.
